According to the supplement of paper PMC10307832:

Columns and labels:
Test in all cases: relative viability (nuclei count vs DMSO), 5 days (fraction); higher = more cells survive
GSK-J4 = compound: CCOC(=O)CCNc1cc(N2CCc3ccccc3CC2)nc(-c2ccccn2)n1 [GSK-J4]
Summary of the method: (§1)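 Viability here means nuclei in treated wells divided by nuclei in vehicle wells, reported as the median across plates. Only plates with control CV below 25% and at least one doubling passed. Lung cancer cell lines in 1536-well plates were exposed to five √10-spaced library-drug doses for 5 days and counted from 4× Hoechst images in MetaXpress.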

AZ3146 = compound: CN1CCC(CC1)OC2=CC(=C(C=C2)NC3=NC=C4C(=N3)N(C(=O)N4C)C5CCCC5)OC [AZ3146]
Summary of the method: as §1

GSK-J4 + Luminespib = compound: CCOC(=O)CCNc1cc(N2CCc3ccccc3CC2)nc(-c2ccccn2)n1 [GSK-J4] + CCNC(=O)c1noc(-c2cc(C(C)C)c(O)cc2O)c1-c1ccc(CN2CCOCC2)cc1 [Luminespib] (partner 0.01 µM)
Summary of the method: (§2)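 After 5 days of treatment, lung cancer cells in 1536-well plates were fixed and stained in a single step (final 0.05% Triton X-100, 1% formaldehyde, 1 ug/ml Hoechst) and their nuclei counted on 4× images. Treatment had been applied by pin tool the day after seeding as one drug alone or as a fixed anchor-drug dose with five library-drug doses (not always all listed) in √10 steps. Relative viability is the nuclei count of treated wells divided by that of vehicle wells, and values are medians of duplicate plates.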

GSK-J4 + Foretinib = compound: CCOC(=O)CCNc1cc(N2CCc3ccccc3CC2)nc(-c2ccccn2)n1 [GSK-J4] + COc1cc2c(Oc3ccc(NC(=O)C4(C(=O)Nc5ccc(F)cc5)CC4)cc3F)ccnc2cc1OCCCN1CCOCC1 [Foretinib] (partner 0.25 µM)
Summary of the method: as §2

GSK-J4 + OSI-027 = compound: CCOC(=O)CCNc1cc(N2CCc3ccccc3CC2)nc(-c2ccccn2)n1 [GSK-J4] + COc1cccc2cc(-c3nc([C@H]4CC[C@H](C(=O)O)CC4)n4ncnc(N)c34)[nH]c12 [OSI-027] (partner 0.5 µM)
Summary of the method: as §2

GSK-J4 + Tozasertib = compound: CCOC(=O)CCNc1cc(N2CCc3ccccc3CC2)nc(-c2ccccn2)n1 [GSK-J4] + Cc1cc(Nc2cc(N3CCN(C)CC3)nc(Sc3ccc(NC(=O)C4CC4)cc3)n2)n[nH]1 [Tozasertib] (partner 0.1 µM)
Summary of the method: as §2

GSK-J4 + Dasatinib = compound: CCOC(=O)CCNc1cc(N2CCc3ccccc3CC2)nc(-c2ccccn2)n1 [GSK-J4] + Cc1nc(Nc2ncc(C(=O)Nc3c(C)cccc3Cl)s2)cc(N2CCN(CCO)CC2)n1 [Dasatinib] (partner 0.075 µM)
Summary of the method: as §2

GSK-J4 + Phenformin = compound: CCOC(=O)CCNc1cc(N2CCc3ccccc3CC2)nc(-c2ccccn2)n1 [GSK-J4] + N=C(N)NC(=N)NCCc1ccccc1 [Phenformin] (partner 250 µM)
Summary of the method: as §2

AZ3146 + Luminespib = compound: CN1CCC(CC1)OC2=CC(=C(C=C2)NC3=NC=C4C(=N3)N(C(=O)N4C)C5CCCC5)OC [AZ3146] + CCNC(=O)c1noc(-c2cc(C(C)C)c(O)cc2O)c1-c1ccc(CN2CCOCC2)cc1 [Luminespib] (partner 0.01 µM)
Summary of the method: as §2

AZ3146 + Foretinib = compound: CN1CCC(CC1)OC2=CC(=C(C=C2)NC3=NC=C4C(=N3)N(C(=O)N4C)C5CCCC5)OC [AZ3146] + COc1cc2c(Oc3ccc(NC(=O)C4(C(=O)Nc5ccc(F)cc5)CC4)cc3F)ccnc2cc1OCCCN1CCOCC1 [Foretinib] (partner 0.25 µM)
Summary of the method: as §2

AZ3146 + OSI-027 = compound: CN1CCC(CC1)OC2=CC(=C(C=C2)NC3=NC=C4C(=N3)N(C(=O)N4C)C5CCCC5)OC [AZ3146] + COc1cccc2cc(-c3nc([C@H]4CC[C@H](C(=O)O)CC4)n4ncnc(N)c34)[nH]c12 [OSI-027] (partner 0.5 µM)
Summary of the method: as §2

AZ3146 + Tozasertib = compound: CN1CCC(CC1)OC2=CC(=C(C=C2)NC3=NC=C4C(=N3)N(C(=O)N4C)C5CCCC5)OC [AZ3146] + Cc1cc(Nc2cc(N3CCN(C)CC3)nc(Sc3ccc(NC(=O)C4CC4)cc3)n2)n[nH]1 [Tozasertib] (partner 0.1 µM)
Summary of the method: as §2

AZ3146 + Dasatinib = compound: CN1CCC(CC1)OC2=CC(=C(C=C2)NC3=NC=C4C(=N3)N(C(=O)N4C)C5CCCC5)OC [AZ3146] + Cc1nc(Nc2ncc(C(=O)Nc3c(C)cccc3Cl)s2)cc(N2CCN(CCO)CC2)n1 [Dasatinib] (partner 0.075 µM)
Summary of the method: as §2

AZ3146 + Phenformin = compound: CN1CCC(CC1)OC2=CC(=C(C=C2)NC3=NC=C4C(=N3)N(C(=O)N4C)C5CCCC5)OC [AZ3146] + N=C(N)NC(=N)NCCc1ccccc1 [Phenformin] (partner 250 µM)
Summary of the method: as §2

NCI-H1623
relative viability (GSK-J4; 0.5 µM): 1.05 | relative viability (GSK-J4; 1.581 µM): 0.739 | relative viability (GSK-J4; 5 µM): 1.31 | relative viability (GSK-J4; 15.81 µM): 0.825 | relative viability (GSK-J4; 50 µM): 0.959 | relative viability (AZ3146; 0.08 µM): 1.03 | relative viability (AZ3146; 0.253 µM): 0.991 | relative viability (AZ3146; 0.8 µM): 0.78 | relative viability (AZ3146; 2.53 µM): 0.944 | relative viability (AZ3146; 8 µM): 0.956 | relative viability (GSK-J4 + Luminespib; first compound 0.5 µM): 0.556 | relative viability (GSK-J4 + Luminespib; first compound 1.581 µM): 0.427 | relative viability (GSK-J4 + Luminespib; first compound 5 µM): 0.677 | relative viability (GSK-J4 + Luminespib; first compound 15.81 µM): 0.432 | relative viability (GSK-J4 + Luminespib; first compound 50 µM): 0.283 | relative viability (GSK-J4 + Foretinib; first compound 0.5 µM): 0.93 | relative viability (GSK-J4 + Foretinib; first compound 1.581 µM): 0.727 | relative viability (GSK-J4 + Foretinib; first compound 5 µM): 0.925 | relative viability (GSK-J4 + Foretinib; first compound 15.81 µM): 0.562 | relative viability (GSK-J4 + Foretinib; first compound 50 µM): 0.807 | relative viability (GSK-J4 + OSI-027; first compound 0.5 µM): 0.438 | relative viability (GSK-J4 + OSI-027; first compound 1.581 µM): 0.456 | relative viability (GSK-J4 + OSI-027; first compound 5 µM): 0.48 | relative viability (GSK-J4 + OSI-027; first compound 15.81 µM): 0.406 | relative viability (GSK-J4 + OSI-027; first compound 50 µM): 0.435 | relative viability (GSK-J4 + Tozasertib; first compound 0.5 µM): 0.437 | relative viability (GSK-J4 + Tozasertib; first compound 1.581 µM): 0.467 | relative viability (GSK-J4 + Tozasertib; first compound 5 µM): 0.455 | relative viability (GSK-J4 + Tozasertib; first compound 15.81 µM): 0.435 | relative viability (GSK-J4 + Tozasertib; first compound 50 µM): 0.451 | relative viability (GSK-J4 + Dasatinib; first compound 0.5 µM): 0.562 | relative viability (GSK-J4 + Dasatinib; first compound 1.581 µM): 0.576 | relative viability (GSK-J4 + Dasatinib; first compound 5 µM): 0.629 | relative viability (GSK-J4 + Dasatinib; first compound 15.81 µM): 0.38 | relative viability (GSK-J4 + Dasatinib; first compound 50 µM): 0.51 | relative viability (GSK-J4 + Phenformin; first compound 0.5 µM): 0.597 | relative viability (GSK-J4 + Phenformin; first compound 1.581 µM): 0.457 | relative viability (GSK-J4 + Phenformin; first compound 5 µM): 0.623 | relative viability (GSK-J4 + Phenformin; first compound 15.81 µM): 0.398 | relative viability (GSK-J4 + Phenformin; first compound 50 µM): 0.545 | relative viability (AZ3146 + Luminespib; first compound 0.08 µM): 0.486 | relative viability (AZ3146 + Luminespib; first compound 0.253 µM): 0.591 | relative viability (AZ3146 + Luminespib; first compound 0.8 µM): 0.612 | relative viability (AZ3146 + Luminespib; first compound 2.53 µM): 0.604 | relative viability (AZ3146 + Luminespib; first compound 8 µM): 0.556 | relative viability (AZ3146 + Foretinib; first compound 0.08 µM): 0.797 | relative viability (AZ3146 + Foretinib; first compound 0.253 µM): 0.757 | relative viability (AZ3146 + Foretinib; first compound 0.8 µM): 0.855 | relative viability (AZ3146 + Foretinib; first compound 2.53 µM): 0.955 | relative viability (AZ3146 + Foretinib; first compound 8 µM): 0.899 | relative viability (AZ3146 + OSI-027; first compound 0.08 µM): 0.39 | relative viability (AZ3146 + OSI-027; first compound 0.253 µM): 0.482 | relative viability (AZ3146 + OSI-027; first compound 0.8 µM): 0.458 | relative viability (AZ3146 + OSI-027; first compound 2.53 µM): 0.405 | relative viability (AZ3146 + OSI-027; first compound 8 µM): 0.402 | relative viability (AZ3146 + Tozasertib; first compound 0.08 µM): 0.46 | relative viability (AZ3146 + Tozasertib; first compound 0.253 µM): 0.404 | relative viability (AZ3146 + Tozasertib; first compound 0.8 µM): 0.461 | relative viability (AZ3146 + Tozasertib; first compound 2.53 µM): 0.481 | relative viability (AZ3146 + Tozasertib; first compound 8 µM): 0.4 | relative viability (AZ3146 + Dasatinib; first compound 0.08 µM): 0.482 | relative viability (AZ3146 + Dasatinib; first compound 0.253 µM): 0.455 | relative viability (AZ3146 + Dasatinib; first compound 0.8 µM): 0.498 | relative viability (AZ3146 + Dasatinib; first compound 2.53 µM): 0.601 | relative viability (AZ3146 + Dasatinib; first compound 8 µM): 0.556 | relative viability (AZ3146 + Phenformin; first compound 0.08 µM): 0.586 | relative viability (AZ3146 + Phenformin; first compound 0.253 µM): 0.534 | relative viability (AZ3146 + Phenformin; first compound 0.8 µM): 0.591 | relative viability (AZ3146 + Phenformin; first compound 2.53 µM): 0.607 | relative viability (AZ3146 + Phenformin; first compound 8 µM): 0.565
